Test results as given in US5578622A, “Isothiazole derivatives and their uses” (Asamura Patent Office, priority 1994, dated 1996).

Tests used:
[1] = test system: Gibberella fujikuroi ("Bakanae" disease of rice); test: Test for rice seed-disinfecting effect; assay type: in vivo; details: Fusarium fujikuroi, 504 h, seed immersion 25° C. 24 hours, three weeks after treatment, read-out: Controlling effect (control of disease), "Bakanae" disease of rice
Description: 2-1 Test for rice seed-disinfecting effect
Unhulled rice infected with Gibberella fujikuroi ("Bakanae" disease of rice) was immersed in a test compound adjusted to 1000 ppm at 25° C. for 24 hours. Water was lightly swished off the seed, which was then sowed and germinated for two days. Three weeks after treatment with the solution containing the compound, the rate of the infected seedlings was examined, and the control of disease was calculated by comparison with that of the untreated plot. The control of disease was shown as a controlling effect on the basis of the following standard.

[2] = test system: Pseudoperonospora cubensis; test: Test for controlling effect on downy mildew of cucumber; assay type: in vivo; details: 168 h, 200 ppm spray, one day before inoculation, cucumber 2-leaf stage, read-out: Controlling effect (control of disease), Downy mildew of cucumber
Description: 2-2 Test for controlling effect on downy mildew of cucumber (Pseudoperonospora cubensis) A test compound adjusted to 200 ppm was sprayed onto cucumber at the 2-leaf stage cultivated in pots. After one day, the cucumber was inoculated by spraying the zoospore suspension of Pseudoperonospora cubensis. After inoculation, the cucumber was placed in a 25° C.-humid room for 1 day and then in a greenhouse for 6 days. Thus, the cucumber was made to be infected with downy mildew. The control of disease of the test compound is calculated by comparing the degree of infection of each leaf with that in the untreated plot. The control of disease is shown as a controlling effect in the same manner as in Test Example 2-1.

Rhizoctonia solani = test: Test for controlling effect on sheath blight of rice; assay type: in vivo; details: 120 h, 200 ppm spray, 24 hours after inoculation, rice 4-leaf stage, five days after inoculation, read-out: Controlling effect (control of disease), Sheath blight of rice
Description: 2-3 Test for controlling effect on sheath blight of rice (Rhizoctonia solani) Rice seedlings at the 4-leaf stage were inoculated with the mycelium of sheath blight of rice (Rhizoctonia solani). After 24 hours, a test medicine solution adjusted to 200 ppm was sprayed onto the seedlings. After air-drying, the seedlings were placed in a humid room for 24 hours where the temperature was kept at 28° C. and humidity was kept at 98%. Thereafter, the seedlings were transferred to a greenhouse, and five days after inoculation, the degree of infected area was examined. The control of disease was calculated by comparison with that in the untreated plot. The control of disease is shown as a controlling effect in the same manner as in Test Example 2-1.

[3] = test system: Candida albicans IFO 1270; test: In vitro antimycotic activity on Candida albicans; assay type: cell-based; details: IFO1270, 10 (ppm), SGB, 37° C., 48 hours, turbidity at 650 nm, read-out: Antimycotic activity (growth inhibitory rate), C.albicans
Description: 3-1 In vitro antimycotic activity on Candida albicans
Candida albicans IFO 1270 pre-cultured on a Sabouraud's glucose agar (SGA) plate medium at 37° C. […] was suspended in a sterilized physiological salt solution. The number of fungi in the resulting suspension was counted with a globulimeter, and adjusted so as to be 1×10^7 cell/ml with a sterilized physiological salt solution. This solution was used as an inoculum solution. Thereafter, 0.1 ml of this solution and 0.1 ml of a dimethyl sulfoxide (DMSO) solution of the test compound were added to 9.8 ml of Sabouraud's glucose broth (SGB), and shake-cultured at 37° C. for 48 hours. After culture, the medium turbidity was measured at 650 nm, and the growth-inhibitory rate of the fungus was calculated according to the following equation.
Growth inhibitory rate (%)=(1-W/Y)×100
Y: Medium turbidity of DMSO control group
W: Medium turbidity of test compound group
From this inhibitory rate, the antimycotic activity was shown by the symbols A to D. The test results of the test compounds are shown in Table 4.

[4] = test system: Aspergillus fumigatus TIMM 0063; test: In vitro antimycotic activity on Aspergillus fumigatus; assay type: cell-based; details: TIMM0063, 10 (ppm), Casitone agar, 37° C., 48 hours, read-out: Antimycotic activity (growth inhibitory rate), A.fumigatus
Description: 3-2 In vitro antimycotic activity on Aspergillus fumigatus.
To Aspergillus fumigatus TIMM 0063 precultured at 37° C. for 48 hours on a potato dextrose agar (PDA) slant medium was added a sterilized physiological salt solution containing 0.1%(W/V) Tween 80. After conidia were made free from the solution, the solution was filtered through a sterilized two-sheet gauze to remove the mycelium mass. The number of the conidia in the resulting suspension was counted with a globulimeter and adjusted so as to be 1×10^5 conidia/ml with a sterilized physiological salt solution containing 0.1%(W/V) Tween 80. This solution was used as an inoculum solution. Casitone agar plate medium containing the DMSO solution of the test compound in a rate of 1% (V/V) was inoculated with the inoculum solution at four places thereof with a microplanter, and cultured with the medium allowed to stand at 37° C. for 48 hours. After culture, the diameter of the mycelium disks cultivated at the four inoculated parts was measured, and its mean value was obtained. The growth inhibitory rate was calculated according to the following equation, and the antimycotic activity was shown in the same manner as in Test Example 3-1.
Growth inhibitory rate (%)=(1-W'/Y')×100
Y': Diameter of mycelium disk of DMSO control group
W': Diameter of mycelium disk of test compound group

[5] = test system: Trichophyton mentagrophytes IFO 5810; test: In vitro antimicrobial activity on Trichophyton mentagrophytes; assay type: cell-based; set-up: key: A: Fungus is not observed at all with the naked eye.; B: Presence of fungus is slightly observed on shaking the test tube.; C: Fungus of about less than one-fourth that of the DMSO control group is observed with the naked eye.; Fungus of about less than half that of the DMSO control group is observed with the naked eye; details: 10 (ppm); SGB, 27° C., 7 days
Description: 3-3 In vitro antimicrobial activity on Trichophyton mentagrophytes To Trichophyton mentagrophytes IFO 5810 precultured at 27° C. for 2 to 3 weeks on a Sabouraud's glucose agar (SGA) slant medium was added a sterilized physiological salt solution containing 0.1% (W/V) Tween 80. After conidia were made free from the solution, the solution was filtered through a sterilized two-sheet gauze to remove the mycelium mass. The number of the conidia in the resulting suspension was counted with a globulimeter and adjusted so as to be 1×10^6 conidia/ml with a sterilized physiological salt solution containing 0.1%(W/V) Tween 80. This solution was used as an inoculum solution. Thereafter, 0.1 ml of this solution and 0.1 ml of the dimethyl sulfoxide (DMSO) solution of the test compound were added to 9.8 ml of Sabouraud's glucose broth (SGB), and shake-cultured at 27° C. for 7 days.

Tyromyces palustris = test: Test for wood rotting-preventing effect (mycelium growth inhibition on malt extract agar); assay type: cell-based; details: 28° C.±2° C., 2 to 10 days, read-out: Rotting preventing effect (mycelium growth-inhibitory rate), TYP
Description: (§1) The following fungi were cultured in agar media, respectively, and mycelial disks on the media were stamped out together with the agar using a cork borer of 4 mm in diameter. The resulting mycelial disks on agar were used as an inoculum. Each test compound of 50 ppm was added to a malt extract agar medium and added in parts to Petri dishes. The above prepared inoculum was put on the Petri dishes and cultured at 28° C.±2° C. Two to ten days after inoculation, the diameter of the mycelial disk of each fungus was measured, and the mycelium growth-inhibitory rate was obtained according to the following equation. [formula] The mycelium growth-inhibitory rate (%) is indicated by the following symbols as a fungicidal effect on each fungus, and the results are shown in Table 2. | TYP: Tyromyces palustris

Trichoderma viride = test: as above; assay type: cell-based; details: 28° C.±2° C., 2 to 10 days, read-out: Rotting preventing effect (mycelium growth-inhibitory rate), TRV
Description: as §1, with “TRV: Trichoderma viride” for “TYP: Tyromyces palustris”

Aspergillus niger = test: as above; assay type: cell-based; details: 28° C.±2° C., 2 to 10 days, read-out: Rotting preventing effect (mycelium growth-inhibitory rate), ASN
Description: as §1, with “ASN: Aspergillus niger” for “TYP: Tyromyces palustris”

Rhizopus nigricans = test: as above; assay type: cell-based; details: Rhizopus stolonifer, 28° C.±2° C., 2 to 10 days, read-out: Rotting preventing effect (mycelium growth-inhibitory rate), RHN
Description: as §1, with “RHN: Rhizopus nigricans” for “TYP: Tyromyces palustris”

Structure (SMILES)	pest or weed control at 1000 ppm [1]	pest or weed control at 200 ppm [2]	pest or weed control at 200 ppm (Rhizoctonia solani)	inhibition of growth at 10 µg/mL [3]	inhibition of growth at 10 µg/mL [4]	Antimycotic activity (degree of growth, naked eye), T.mentagrophytes [5]	inhibition at 50 ppm (Tyromyces palustris)	inhibition at 50 ppm (Trichoderma viride)	inhibition at 50 ppm (Aspergillus niger)	inhibition at 50 ppm (Rhizopus nigricans)
CC(C)Sc1snc(OCC#CI)c1C#N [Compound 4]	95 to 100%	95 to 100%	80 to 94%	100%	100%	A				
CCOCCSc1snc(OCC#CI)c1C#N [Compound 16]				100%	100%	A	95 to 100%	95 to 100%	80 to 94%	80 to 94%
CCOc1snc(OCC#CI)c1C#N [Compound 22]				100%	100%	A	95 to 100%	95 to 100%	95 to 100%	95 to 100%
CN1CCN(c2snc(OCC#CI)c2C#N)CC1 [Compound 36]				100%	100%	A	95 to 100%	95 to 100%	80 to 94%	80 to 94%
N#Cc1c(OC(F)F)nsc1OCC#CI [Compound 50]	95 to 100%	95 to 100%	95 to 100%	100%	100%	A				
C=CCOc1nsc(SCOCC#CI)c1C#N [Compound 57]				100%	100%	A	95 to 100%	95 to 100%	95 to 100%	95 to 100%
N#CCOc1nsc(SCOCC#CI)c1C#N [Compound 63]	95 to 100%	95 to 100%	80 to 94%	100%	100%	A				
CC(C#CI)OCOc1nsc(SC(F)F)c1C#N (stereo not drawn) [Compound 111]				100%	100%	A	95 to 100%	95 to 100%	95 to 100%	95 to 100%
COc1nsc(SC(C)OCC#CI)c1C#N (stereo not drawn) [Compound 125]	95 to 100%	95 to 100%	95 to 100%	100%	100%	A				
CSc1snc(SCOCC#CI)c1C#N [Compound 128, 3-(3-iodo-2-propynyloxymethylthio)-4-cyano-5-methylthioisothiazole]	80 to 94%	95 to 100%	60 to 79%	100%	100%	A				
N#Cc1c(SC(F)F)nsc1SCOCC#CI [Compound 138]				100%	100%	A	95 to 100%	95 to 100%	95 to 100%	95 to 100%
